From US20250326779A1, “ANTI-HIV COMPOUNDS” (priority 2024, published 2025)
Converted amounts (≈) assume the structure as drawn.

Key:
[1] = target: T1, bovine intestinal alkaline phosphatase (Bos taurus, UniProt P19111); test: BiALP: conversion by bovine intestinal alkaline phosphatase; type: in vitro ADME; settings: remaining substrate after 60 min at 37° C., 2 μM substrate, 100 ng/mL iALP, Tris buffer pH 7.8
T1 construct: purchased Millipore Sigma (St. Louis, MO) or Thermo Fisher Scientific (Waltham, MA)
Method: Fosamprenavir and its parent compound (amprenavir) were purchased from Millipore Sigma (St. Louis, MO). Test compounds, Intermediate A, fosamprenavir, and amprenavir were each separately dissolved in dimethyl sulfoxide (DMSO) at a concentration of 10 mM to form stock solutions.
All other chemicals were purchased from Millipore Sigma (St. Louis, MO) and Thermo Fisher Scientific (Waltham, MA). The chemicals included purified bovine intestinal alkaline phosphatase as a lyophilized powder (specific activity: 101 diethanolamine units/mg solid). Internal Standard/Quench (IS/Q) was 100 nM labetalol in 99:1 (v/v) acetonitrile/formic acid.
Incubations were performed with Tris buffer alone (0.1 M Tris-HCl pH 7.8 containing 1 mM MgCl2 and 1 mM ZnCl2) or the same Tris buffer further containing 100 ng/mL iALP (0.01 units/mL). Triplicate 100 μL aliquots of Tris buffer±iALP were warmed to 37° C. and the reactions were initiated by the addition of the test compound or fosamprenavir to obtain final substrate concentrations of 2 μM. Incubations were then continued at 37° C. […] Aliquots (15 μL) of the diluted supernatants were analyzed by mass spectrometry as described below.
Quantification of the test compounds and fosamprenavir was performed by analyte/internal standard peak area ratios (PARs) with comparison to 2 μM Intermediate A and amprenavir, respectively. […]

HIV-1 IIIB strain = test: MT-4 HIV Wild Type Virus Infection Assay (IIIB Virus); type: cell-based; settings: Human immunodeficiency virus 1, MT4, 120 h; MT-4 cells acutely infected with HIV-1 IIIB, 5 day incubation, Cell-titer glo
Method: MT-4 HIV Wild Type Virus Infection Assay (IIIB Virus)
Test compounds and controls were serially diluted and spotted in replicate into 384 well black assay plates via acoustic transfer (Echo). MT-4 cells were grown in batch, centrifuged and resuspended into fresh CCM media (RPMI w/10% FBS, 1% PS) at 2×10^6 cells/ml. MT-4 cells were acutely infected with HIV-1 IIIB strain. The size of each infection mix was scaled by the number of sample plates to be tested. Each infection mix was transferred into 5 mL closed tubes and nutated rapidly on a shaker at 37° C. incubator for 1 hour. The infection mixes were then diluted 25× in fresh cell culture media and then added to assay plates at 40 μL per well using a ViaFlo 384 pipettor. After 5 day incubation at 37° C. in a C02 incubator, assay plates were processed with Cell-titer glo reagent using a ViaFlo 384 with an addition/mixing program. Plates were read immediately on Envision reader. Assay signals were plotted and dose response curves generated to determine individual compound EC50s.

Solubility in FaSSIF = type: physicochemical; settings: 23 °C, thermodynamic from solid; FaSSIF pH 6.5, 5 mg/mL dose concentration, 2-hour incubation, ambient temperature
Method: Buffer Preparation: Fasted State Simulated Intestinal Fluid (FaSSIF): Simulated Intestinal Fluid (SIF) powder containing a complex of Taurocholate and Lecithin (4:1 molar ratio) was obtained from Biorelevant. […] The buffer was prepared with HPLC H2O.
Test Compounds: Each test compound was placed in a vial containing approximately 7 mg of material. Aliquots were weighed out for each assay media at each time point to be analyzed. The buffer was added to each vial such that the final dose concentration of 5 mg/mL was achieved. Samples were then vortexed for 5-10 seconds.
The plate was sealed with a pierceable heat seal and analyzed by HPLC-UV.

[2] = Intestinal S9 Assay (dog); type: in vitro ADME; settings: pooled intestinal S9 fraction, 1.0 mg/mL S9 protein, 2 μM substrate, TRIS pH 7.4, read-out: Dog GI S9 T½
Method: (§1) Reagents. Stock solutions of test compounds in dimethyl sulfoxide (DMSO) having a final concentration of 10 mM were prepared and used in all experiments. Sekisui XenoTech (Kansas City, KS) provided pooled intestinal S9 fractions. All other chemicals were purchased from Sigma-Aldrich (St. Louis, MO) or VWR (West Chester, PA).
(§2) Intestinal S9 Assay: For each test compound, an aliquot of the test compound was added to S9 stock diluted with TRIS buffer (100 mM TRIS, 1 mM ZnCl2, 1 mM MgCl2), pH 7.4, to obtain an incubation protein concentration of 1.0 mg/mL. The incubation was initiated by the addition of the substrate to the S9 reaction mixture to a final concentration of 2 μM. […] After quenching, the plates were centrifuged at 3000×g for 30 minutes. 150 μL aliquots of each supernatant were transferred to new plates and 150 μL water was added. Aliquots (10 μL) of the prepared samples were analyzed on a Thermo Q-Exactive mass spectrometer as described below.
(§3) Liquid Chromatography-Mass Spectrometry: Quantification of test compounds and control substrate was performed by analyte/internal standard peak area ratio (PAR) values measured on a Thermo Q-Exactive mass spectrometer coupled to a Dionex UltiMate 3000 HPLC with a Leap Technologies HTC PAL autosampler. The column used for analysis was a Thermo Scientific Hypersil GOLD (1.9 μm particle size, 50×2.1 mm). […]

[3] = Intestinal S9 Assay (human); type: in vitro ADME; settings: pooled intestinal S9 fraction, 1.0 mg/mL S9 protein, 2 μM substrate, TRIS pH 7.4, read-out: Human GI S9 T½
Method: as §1, §2, §3

pH 7 Stability Assay = type: physicochemical; settings: ACN/pH 7.4 buffer with 1% DMSO stock; 1/49.5/49.5% v/v DMSO stock/ACN/pH 7.4 buffer, UPLC 0-24 h; read-out: pH7 T½
Method: pH 7 Stability Assay: A sample stock at approximately 10 mg/mL of each test compound was prepared with dimethyl sulfoxide (DMSO) in vials. […] Sample vials were prepared by adding 495 μL ACN into a UPLC vial followed by 495 μL pH 7.4 buffer. Then 10 μL test compound stock solution from the first step was added to that UPLC vial. 1000 uL 50/50% v/v ACN/Water was used as diluent blank.
Metabolic stabilities were determined by measuring the rates of disappearance of test compound and positive control substrate. • Data (% of substrate remaining) were plotted on a semi-log scale and fitted using an exponential decline model:
[formula] • Assuming a first-order reaction, the slope (k) is extrapolated from the aforementioned plotted data.

T1 sequence (P19111 20-506 limits assumed): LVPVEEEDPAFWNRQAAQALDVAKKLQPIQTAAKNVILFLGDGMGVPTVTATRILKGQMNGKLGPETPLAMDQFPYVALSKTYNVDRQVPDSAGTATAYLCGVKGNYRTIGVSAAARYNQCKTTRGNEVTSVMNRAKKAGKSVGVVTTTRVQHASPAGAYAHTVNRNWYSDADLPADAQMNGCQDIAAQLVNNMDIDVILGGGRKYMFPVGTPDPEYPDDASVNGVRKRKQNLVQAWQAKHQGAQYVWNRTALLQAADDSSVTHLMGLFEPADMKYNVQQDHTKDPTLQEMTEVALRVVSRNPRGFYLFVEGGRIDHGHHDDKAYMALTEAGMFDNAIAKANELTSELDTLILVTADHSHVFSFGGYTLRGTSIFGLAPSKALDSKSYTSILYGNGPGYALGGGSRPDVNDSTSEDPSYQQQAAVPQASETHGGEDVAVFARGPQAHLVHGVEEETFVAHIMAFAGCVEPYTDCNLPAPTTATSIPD

Row | Compound | [Compound] [1] [nM] | EC50 (HIV-1 IIIB strain) [nM] | solubility at 2 h (Solubility in FaSSIF) [µg/mL] | half-life at 2 μM [2] [h] | half-life at 2 μM [3] [h] | half-life at 0.1 mg/mL (pH 7 Stability Assay) [h]
1 | COC(=O)N[C@H](C(=O)N[C@@H](Cc1ccc(C#Cc2cnc(N3CC4CCC(C3)N4C3COC3)nc2)cc1)[C@H](CN(Cc1c(F)cc(-c2ccn(C(F)F)n2)cc1F)NC(=O)[C@@H](NC(=O)OC)C(C)(C)C(F)(F)F)OCOP(=O)(O)O)C(C)(C)C(F)(F)F [Compound 1, methyl ((5S,8S,9S,14S)-11-(4-(1-(difluoromethyl)-1H-pyrazol-3-yl)-2,6-difluorobenzyl)-16,16,16-trifluoro-15,15-dimethyl-8-(4-((2-(8-(oxetan-3-yl)-3,8-diazabicyclo[3.2.1]octan-3-yl)pyrimidin-5-yl)ethynyl)benzyl)-3,6,13-trioxo-9-((phosphonooxy)methoxy)-5-(1,1,1-trifluoro-2-methylpropan-2-yl)-2-oxa-4,7,11,12-tetraazahexadecan-14-yl)carbamate] | 1691 | 22.3 | 580 (≈ 458 µM) | 1.36 | 0.787 | > 480
2 | CC(C)CN(C[C@@H](OP(=O)(O)O)[C@H](Cc1ccccc1)NC(=O)O[C@H]1CCOC1)S(=O)(=O)c1ccc(N)cc1 [Fosamprenavir, reference compound] | 1605 |  |  |  |  | 
